*1 amine or outer side, *2 acyl side, *3 side chain or, on linkers, in order; H or OH if unused. Where a SMILES comes first, the peptide text is derived from it. Bridges are numbered along the chain shown (N, C = ends). [ ]: non-standard residue; d: D form. The star is where a group is joined. pTerphenylCO(4''-OnC5H11) = CCCCCOc1ccc(-c2ccc(-c3ccc(C(=O)*)cc3)cc2)cc1; Orn(4R-OH,5R-OH) = O=C([C@H](C[C@@H](O)[C@@H](O)N[*:3])N[*:1])[*:2]; hTyr(3S-OH,4S-OH) = N[C@H](C(=O)O)[C@H](O)[C@@H](O)c1ccc(O)cc1; Pro(3S-OH,4S-Me) = C[C@H]1CN[C@H](C(=O)O)[C@H]1O; Hyp = O=C(O)[C@@H]1C[C@@H](O)CN1
Experiments:
[1] = Stability of Compound C1 in m-APBA at alkaline pH (HPLC main peak purity); assay type: physicochemical
Procedure: (§1) Unless indicated otherwise, all chemicals can be acquired from commercial sources (i.e., Aldrich Chemical, Sigma, etc.) in reagent grade or better. Centrifugation was performed using an IEC benchtop clinical centrifuge equipped with six-place swinging-bucket rotor (for samples > 1.5 ml) and an Eppendorf tabletop centri fuge model 5415C equipped with standard 18-place rotor (for samples ≤ 1.5 ml). HPLC analyses were performed using a Hewlett Packard Liquid Chromatograph Model 1090 equipped with a 0.46 x 25 cm Zorbax™ SB-C8 column. All injections were 10 µl, followed by gradient elution from 40-100% acetonitrile (AcN) over 25 minutes and UV detection at 280 nm. Unless otherwise stated, samples were diluted in 0.25 N acetic acid/AcN prior to injection to facilitate decomplexation and ensure solubility in the HPLC solvent system. All alkaline pH adjustments were made by addition of a 1:1 mixture of ammonium hydroxide and 50% sodium hydroxide. Measurements were taken with a Beckman φ40 pH meter calibrated with pH 7 and pH 10 standards.
Compound C1 was suspended at 100 mg/ml (65% potency: 65 mg/ml (57 mM) in either 250 mM m-APBA or water (control). Separate samples were adjusted to pH 8.0, 8.5, 9.0, 9.5 and 10.0. Aliquots for time-point analysis were removed and diluted 100-fold in 100 mM acetic acid/methanol prior to HPLC injection. Stability was assessed by analysis of main peak purity, since degradation products are known to elute within the HPLC chromatographic window.

[2] = Solubility of Compound C1 in the presence of m-APBA (suspension, centrifugation, HPLC of supernatant); assay type: physicochemical; conditions: for appearance of aqueous solution: 30 mg/ml
Procedure: as §1
Crude C1 was suspended at 50 mg/ml (65% potency: 32.5 mg/ml, or 28.5 mM) in 4 ml of either 100 mM m-APBA or 100 mM ammonium bicarbonate (control) at pH 5.0 and pH 9.0. The samples were stirred at room temperature for 2 hours, at which time aliquots were removed and assayed both before and after centrifugation for five minutes at […]. All samples were diluted 50-fold prior to HPLC analysis.
At low pH (≤ 8.0), solid suspensions of Compound C1 in m-APBA and in ammonium bicarbonate were visually identical. Both were opaque and contained varying amounts of solid, insoluble material. However, when the pH was adjusted to 9.0 dramatic differences in appearance between the two samples was observed within approximately 30 minutes. The aqueous ammonium bicarbonate control was beige in color and completely opaque; whereas, the sample containing m-APBA turned a transparent, dark brown. When the mixtures were subjected to centrifugation for 5 minutes at 16,000 x g and the resulting supernatants quantified by HPLC analysis, the concentration of C1 present in the m-APBA supernatant was 23.76 mg/ml (94% of that in the original suspension) and only 2.27 mg/ml (10% of the original suspension) was present in the ammonium bicarbonate control supernatant.

[3] = m-APBA replaced with boric acid (borate complex)

## CCCCCOc1ccc(-c2ccc(-c3ccc(C(=O)N[C@H]4C[C@@H](O)[C@@H](O)NC(=O)[C@@H]5[C@@H](O)[C@@H](C)CN5C(=O)[C@H]([C@@H](C)O)NC(=O)[C@H]([C@H](O)[C@@H](O)c5ccc(O)cc5)NC(=O)[C@@H]5C[C@@H](O)CN5C(=O)[C@H]([C@@H](C)O)NC4=O)cc3)cc2)cc1 [Compound C1] ({pTerphenylCO(4''-OnC5H11)}-[Orn(4R-OH,5R-OH)]T[Hyp][hTyr(3S-OH,4S-OH)]T[Pro(3S-OH,4S-Me)]; lactam 1-C)
[1]; 250 mM m-APBA, pH 9.5, after 17 hours
  purity (main peak): > 70%
[1]; aqueous control (water), pH 9.5, after 9 hours
  purity (main peak, of the total peak area): less than 70%
[1]; in the presence of m-APBA, alkaline pH
  chemical stability in comparison to the aqueous control: enhanced chemical stability
[1]; [3]
  stability of complex: very stable
[1]; p-carboxyphenylboronic acid used instead of m-APBA
  stability of complex: did not appear to be as stable
[2]; 100 mM ammonium bicarbonate control, pH 9.0
  concentration in supernatant as % of the original suspension: 10%
[2]; 100 mM ammonium bicarbonate control, pH 9.0, room temperature, crude C1 suspended at 50 mg/ml (32.5 mg/ml), after centrifugation, read-out: concentration of C1 present in the supernatant
  solubility thermodynamic at 2 h: 2270 µg/mL
[2]; 100 mM m-APBA, pH 9.0
  concentration in supernatant as % of that in the original suspension: 94%
[2]; 100 mM m-APBA, pH 9.0, room temperature, crude C1 suspended at 50 mg/ml (32.5 mg/ml), after centrifugation
  concentration of C1 present in the supernatant: 23760 µg/mL
[2]; boronate complex
  appearance of aqueous solution: transparent solution
[2]; in the presence of m-aminophenyl boronic acid at pH 9.0 in aqueous solution
  increase in solubility: 10 fold
[2]; [3]
  solubility of complex: increased solubility
[2]; m-APBA replaced with p-carboxyphenyl boronic acid (boronate complex)
  solubility of complex: increased solubility
[2]; non-complexed
  appearance of aqueous solution: opaque slurry

From patent EP1107982B1, “[…] COMPLEXES OF 1,2-(CIS)-DIOL CYCLIC PEPTIDES” (Eli Lilly & Company, priority 1998, dated 2000)
